Patent US20080300253A1, “TREATMENT OF INFLAMMATORY DISORDERS WITH PRAZIQUANTEL” (Gencross, Inc., priority 2005, published 2008)
Where two headings read alike, the source gives them in different places.

What was measured:
[1] = dogs dosed with 100 mg/kg; cited from earlier work
[2] = rats; cited from earlier work
[3] = tested on: NF-κB; assay: NF-κB total level and nuclear translocation in LPS-treated differentiated THP-1 cells (Western blotting); format: cell-based, human; settings: 2 μg/ml LPS + 100 nM praziquantel
Protocol: (§1) The THP-1 human monocytic cell line was treated with 200 nM phorbol myristate acetate (PMA) for 24 hours, resulting in differentiation into functional macrophages. Differentiated THP-1 cells were treated with 2 μg/ml lipopolysaccharide (LPS), and total proteins or nuclear proteins were isolated 0.5, 1, 2, and 3 hours later. In some differentiated THP-1 cell cultures, a combination of LPS and 100 nM praziquantel was added prior to isolation of total and nuclear proteins at the same time points. Both total protein and nuclear protein were quantitated by Western blotting. […] Thus, praziquantel inhibits LPS-induced NF-κB activity by preventing its translocation to the nucleus where it exerts its transcriptional activation effects. Neither α-tubulin nor lamin B protein was affected by either LPS or praziquantel treatment (FIG. 1).

[4] = tested on: ATF-2; assay: Phosphorylated ATF-2 in LPS-treated differentiated THP-1 cells (Western blotting); format: cell-based, human; settings: 2 μg/ml LPS + 100 nM praziquantel vs LPS alone
Protocol: as §1

[5] = tested on: TNF-α; assay: TNF-α amount in LPS-treated differentiated THP-1 cells (Western blotting); format: cell-based, human
Protocol: as §1

[6] = tested on: collagen-induced arthritis; assay: Mouse collagen-induced arthritis model: severity of arthritis by visual inspection; format: in vivo, DBA/1 mice; settings: 50 mg/kg oral suspension in saline, once or twice a day for three weeks; vs vehicle
Protocol: (§2) Male DBA/1 mice, obtained from the Jackson Laboratory, are maintained in groups of three to five in polycarbonate cages and fed standard mouse chow and water ad libitum. The environment is made specifically pathogen-free. Mice are immunized with bovine type II collagen (CII), at 8 to 12 weeks of age, as described previously (Arthritis Rheum. 2002, 46:1109, 2002; J. Immunol., 5846, 2005). Briefly, CII is dissolved in 0.05N acetic acid at 2 mg/ml, and emulsified (1:1 ratio) with complete Freund's adjuvant (CFA) at 4° C. The mice receive 0.1 ml of the emulsion, containing 100 μg of CII, in the base of the tail as a primary immunization. Booster injections are given into the footpad with 50 μg of CII, similarly dissolved and emulsified with CFA (1:1), 14 days after the primary immunization. CIA develops as early as 3 wk, peaks at 5-7 wk, and thereafter spontaneously resolves at 10 wk. Mice are divided into two groups. One group is administered vehicle (saline), and the other group is administered an oral suspension of 50 mg/kg praziquantel in saline starting 2 weeks after the CII booster injection. Praziquantel administration is continued once or twice a day for three weeks after the initial administration.
(§3) TNF-α and p38 levels in blood are then assayed as described above, and the incidence and severity of arthritis in the two groups of mice are determined by visual inspection.

[7] = tested on: IKK-α; assay: IKK-α phosphorylation in blood mononuclear cells of LPS/D-galactosamine-treated mice (western blotting); format: in vivo; settings: 50 mg/kg oral 30 minutes prior to LPS/D-galactosamine; blood 3 hours later
Protocol: (§4) Mice were orally administered 50 mg/kg praziquantel 30 minutes prior to ip injection of 8 ng LPS and 8 mg D-galactosamine. Blood samples were taken 3 hours later, and mononuclear cells were isolated using Histopaque (Sigma Aldrich, cat #1080). Protein levels and their phosphorylation states were then determined by western blotting. […] The amount of IKK-α and IKK-β proteins and their phosphorylation states were also examined. […] IKK-α and IKK-β are known to phosphorylate IκB, and phosphorylated IκB is degraded by a protease.

[8] = tested on: TNF-α; assay: Serum TNF-α (ELISA) in acute mouse sepsis model (LPS/D-galactosamine); format: in vivo, C57BL/6 mice; settings: 12.5, 25 or 50 mg/kg oral, 30 minutes prior to LPS/D-galactosamine
[9] = tested on: p38; assay: Mouse collagen-induced arthritis model: serum p38; format: in vivo, DBA/1 mice; settings: 50 mg/kg oral suspension in saline, once or twice a day for three weeks; vs vehicle
Protocol: as §2, §3

[10] = tested on: IKK α/β; assay: Phosphorylated IKK α/β in LPS-treated differentiated THP-1 cells (Western blotting); format: cell-based, human; settings: 2 μg/ml LPS + 100 nM praziquantel vs LPS alone
Protocol: as §1

[11] = tested on: IκB; assay: IκB amount and phosphorylation in blood mononuclear cells of LPS/D-galactosamine-treated mice (western blotting); format: in vivo; settings: 50 mg/kg oral 30 minutes prior to LPS/D-galactosamine; blood 3 hours later
Protocol: as §4

[12] = tested on: TNF-α; assay: Mouse collagen-induced arthritis model: serum TNF-α; format: in vivo, DBA/1 mice; settings: 50 mg/kg oral suspension in saline, once or twice a day for three weeks; vs vehicle
Protocol: as §2, §3

[13] = tested on: ATF-2; assay: ATF-2 phosphorylation in blood mononuclear cells of LPS/D-galactosamine-treated mice (western blotting); format: in vivo; settings: 50 mg/kg oral 30 minutes prior to LPS/D-galactosamine; blood 3 hours later
Protocol: (§5) Mice were orally administered 50 mg/kg praziquantel 30 minutes prior to ip injection of 8 ng LPS and 8 mg D-galactosamine. Blood samples were taken 3 hours later, and mononuclear cells were isolated using Histopaque (Sigma Aldrich, cat #1080). Protein levels and their phosphorylation states were then determined by western blotting.

[14] = tested on: IKK-β; assay: IKK-β phosphorylation in blood mononuclear cells of LPS/D-galactosamine-treated mice (western blotting); format: in vivo; settings: 50 mg/kg oral 30 minutes prior to LPS/D-galactosamine; blood 3 hours later
Protocol: as §4

[15] = tested on: p38 kinase; assay: p38 kinase amount and phosphorylation in blood mononuclear cells of LPS/D-galactosamine-treated mice (western blotting); format: in vivo; settings: 50 mg/kg oral 30 minutes prior to LPS/D-galactosamine; blood 3 hours later
Protocol: as §5

[16] = tested on: LPS/D-galactosamine-induced acute sepsis; assay: Survival of LPS/D-galactosamine-treated mice (acute sepsis); format: in vivo, C57BL6 mice
Protocol: An acute mouse in vivo sepsis model was used to determine the ability of praziquantel to reduce TNF-α levels. C57BL/6 mice were used which were 7 to 8 weeks old and weighed 25 to 30 g. Fodder (Daehan Biolink) and water were administered ad libitum, and the temperature and relative humidity of the nursery cage were maintained at 21-24° C. and 40-80%, respectively. In addition, the nursery cage light was controlled to switch between day and night every 12 hours. Eight to ten mice were assigned to each experimental group. Each mouse was intraperitoneally (ip) administered 8 ng LPS (Sigma Aldrich) and 8 mg D-galactosamine (SIGMA), each dissolved in 100 μl distilled water, to induce acute sepsis. In order to investigate the effect of praziquantel on TNF-α levels in blood, praziquantel was orally administered to each experimental group at dosages of 12.5 mg/kg, 25 mg/kg or 50 mg/kg, 30 minutes prior to treatment with LPS/D-galactosamine. The blood was sampled 1, 3 and 5 hours after treatment with praziquantel. Serum was isolated from the sampled blood, and the amount of TNF-α was measured by ELISA (R&D Systems, Minneapolis, Minn.).
Female C57BL6 mice (8-10 per experimental group) were treated as described above to induce acute sepsis, and the same doses of praziquantel were administered 30 minutes prior to treatment with LPS/D-galactosamine.

[17] = tested on: p38; assay: Phosphorylated p38 in LPS-treated differentiated THP-1 cells (Western blotting); format: cell-based, human; settings: 2 μg/ml LPS + 100 nM praziquantel vs LPS alone
Protocol: as §1

[18] = cats dosed with 100 mg/kg; cited from earlier work

O=C(C1CCCCC1)N1CC(=O)N2CCc3ccccc3C2C1 (stereo not drawn) [Praziquantel, 2-(cyclohexylcarbonyl)-1,2,3,6,7,11β-hexahydro-4H-pyrazino[2,1-α]isoquinoline-4-one]
adverse effects [1]: No adverse effects
LD50 [2]: 2,000-3,000 mg/kg
total NF-κB levels [3]: not affected
translocation of NF-κB to the nucleus ([3]; nuclear fraction): did not occur
active (phosphorylated) form of ATF-2 [4]: Significant reductions
amount of TNF-α ([5]; 2 μg/ml LPS + 100 nM praziquantel vs LPS alone, one, two and three hours): much less TNF-α
amount of TNF-α ([5]; 2 μg/ml LPS + 100 nM praziquantel, two and three hour time points): barely detectable
severity of arthritis [6]: greatly reduced
phosphorylation of IKK-α [7]: inhibited
amount of TNF-α in blood serum [8]: dose-dependent decrease
serum levels of p38 [9]: significantly reduced
active (phosphorylated) form of IKK α/β [10]: Significant reductions
amount of IκB protein [11]: did not decrease
phosphorylation of IκB [11]: inhibited
serum levels of TNF-α [12]: significantly reduced
phosphorylation of ATF-2 [13]: inhibited
phosphorylation of IKK-β [14]: inhibited
amount of p38 protein [15]: did not change
phosphorylation of p38 kinase [15]: inhibited
Survival (# of mice) ([16]; 12.5 mg/kg oral, 0 h): (30/30)
Survival rate ([16]; 12.5 mg/kg oral, 0 h): 100%
Survival (# of mice) ([16]; 12.5 mg/kg oral, 5 h): (30/30)
Survival rate ([16]; 12.5 mg/kg oral, 5 h): 100%
Survival (# of mice) ([16]; 12.5 mg/kg oral, 6 h): (26/30)
Survival rate ([16]; 12.5 mg/kg oral, 6 h): 86%
Survival (# of mice) ([16]; 12.5 mg/kg oral, 7 h): (17/30)
Survival rate ([16]; 12.5 mg/kg oral, 7 h): 57%
Survival (# of mice) ([16]; 12.5 mg/kg oral, 8 h): (15/30)
Survival rate ([16]; 12.5 mg/kg oral, 8 h): 50%
Survival (# of mice) ([16]; 12.5 mg/kg oral, 9 h): (13/30)
Survival rate ([16]; 12.5 mg/kg oral, 9 h): 43%
Survival (# of mice) ([16]; 12.5 mg/kg oral, 10 h): (4/30)
Survival rate ([16]; 12.5 mg/kg oral, 10 h): 14%
Survival (# of mice) ([16]; 12.5 mg/kg oral, 11 h): (4/30)
Survival rate ([16]; 12.5 mg/kg oral, 11 h): 14%
Survival (# of mice) ([16]; 12.5 mg/kg oral, 12 h): (4/30)
Survival rate ([16]; 12.5 mg/kg oral, 12 h): 14%
Survival (# of mice) ([16]; 12.5 mg/kg oral, >24 h): (4/30)
Survival rate ([16]; 12.5 mg/kg oral, >24 h): 14%
Survival (# of mice) ([16]; 25 mg/kg oral, 0 h): (30/30)
Survival rate ([16]; 25 mg/kg oral, 0 h): 100%
Survival (# of mice) ([16]; 25 mg/kg oral, 5 h): (30/30)
Survival rate ([16]; 25 mg/kg oral, 5 h): 100%
Survival (# of mice) ([16]; 25 mg/kg oral, 6 h): (28/30)
Survival rate ([16]; 25 mg/kg oral, 6 h): 93%
Survival (# of mice) ([16]; 25 mg/kg oral, 7 h): (21/30)
Survival rate ([16]; 25 mg/kg oral, 7 h): 71%
Survival (# of mice) ([16]; 25 mg/kg oral, 8 h): (21/30)
Survival rate ([16]; 25 mg/kg oral, 8 h): 71%
Survival (# of mice) ([16]; 25 mg/kg oral, 9 h): (21/30)
Survival rate ([16]; 25 mg/kg oral, 9 h): 71%
Survival (# of mice) ([16]; 25 mg/kg oral, 10 h): (21/30)
Survival rate ([16]; 25 mg/kg oral, 10 h): 71%
Survival (# of mice) ([16]; 25 mg/kg oral, 11 h): (21/30)
Survival rate ([16]; 25 mg/kg oral, 11 h): 71%
Survival (# of mice) ([16]; 25 mg/kg oral, 12 h): (19/30)
Survival rate ([16]; 25 mg/kg oral, 12 h): 64%
Survival (# of mice) ([16]; 25 mg/kg oral, >24 h): (19/30)
Survival rate ([16]; 25 mg/kg oral, >24 h): 64%
Survival (# of mice) ([16]; 50 mg/kg oral, 0 h): (30/30)
Survival rate ([16]; 50 mg/kg oral, 0 h): 100%
Survival (# of mice) ([16]; 50 mg/kg oral, 5 h): (30/30)
Survival rate ([16]; 50 mg/kg oral, 5 h): 100%
Survival (# of mice) ([16]; 50 mg/kg oral, 6 h): (28/30)
Survival rate ([16]; 50 mg/kg oral, 6 h): 93%
Survival (# of mice) ([16]; 50 mg/kg oral, 7 h): (28/30)
Survival rate ([16]; 50 mg/kg oral, 7 h): 93%
Survival (# of mice) ([16]; 50 mg/kg oral, 8 h): (28/30)
Survival rate ([16]; 50 mg/kg oral, 8 h): 93%
Survival (# of mice) ([16]; 50 mg/kg oral, 9 h): (28/30)
Survival rate ([16]; 50 mg/kg oral, 9 h): 93%
Survival (# of mice) ([16]; 50 mg/kg oral, 10 h): (28/30)
Survival rate ([16]; 50 mg/kg oral, 10 h): 93%
Survival (# of mice) ([16]; 50 mg/kg oral, 11 h): (28/30)
Survival rate ([16]; 50 mg/kg oral, 11 h): 93%
Survival (# of mice) ([16]; 50 mg/kg oral, 12 h): (28/30)
Survival rate ([16]; 50 mg/kg oral, 12 h): 93%
Survival (# of mice) ([16]; 50 mg/kg oral, >24 h): (28/30)
Survival rate ([16]; 50 mg/kg oral, >24 h): 93%
active (phosphorylated) form of p38 [17]: Significant reductions
adverse effects [18]: No adverse effects
